The source of these data is patent publication US20120165340A1, “PTEN PHOSPHORYLATION-DRIVEN RESISTANCE TO CANCER TREATMENT AND ALTERED PATIENT PROGNOSIS” (Ludwing Institute for Cancer Research Ltd., priority 2009, published 2012).

Non-standard residues stand in square brackets, D forms with d. No end group written: not given here. pY = N[C@@H](Cc1ccc(OP(=O)(O)O)cc1)C(=O)O

One series concerns Ink4a/Arf-/- astrocytes. Briefly: Drug sensitivity assay, cell viability by WST-1. The series is classed as cell-based, mouse. The following applies: 72 hours. From the text: Mouse Astrocytes. Ink4a/Arf^−/−1 and Pten^loxP/loxP 2 mice were obtained from the NCI mouse depository and intercrossed to generate described genotypes. Primary astrocytes were isolated from the neocortex of 4 day old pups, using standard astrocyte isolation culture conditions (Bachoo et al 2002). Conditional deletion of Pten^loxP/loxP was accomplished by infecting astrocyte cultures with adenovirus expressing Cre recombinase under the CMV promoter (Gene TransferVector Core, University of Iowa, Iowa City, Iowa). Effective Pten deletion was verified by western blot. EGFRvIII was expressed in these cells by retroviral infection as described previously (Bachoo et al 2002). (Reference: Bachoo, R. M. et al. Epidermal growth factor receptor and Ink4a/Arf: convergent mechanisms governing terminal differentiation and transformation along the neural stem cell to astrocyte axis. Cancer Cell 1, 269-77 (2002)).
Drug sensitivity assays. Cells were plated at 1000 cells/well in 96 well plates and allowed to adhere for four hours prior to addition of Erlotinib and/or Dasatinib or solvent (DMSO) control. Cells were maintained in 5% serum during drug treatments and cell viability was measured using WST-1 assay (Clontech) following 72 hours exposure to drug.
Statistical analysis. For quantitation and analysis of immunohistochemistry data, see above. For analysis of drug sensitivity data, 2-way ANOVA was performed using the KaleidaGraph program (Synergy Software).
A general note: Tetrazolium assays rely on reduction of a dye to a coloured formazan, in cell work by metabolically active cells.

The test system of series [1] is Ph+ leukemia cells which express wt and mutated BCR-ABL. The settings on record: mouse, in vivo; cited from earlier work.
The target in the next series is Lyn (Homo sapiens, UniProt P07948). The settings on record: cited from earlier work.
For series [2] the following is noted: in vivo; cited from earlier work.
Another series has as its system anti-pY240 PTEN antibody. In words: Peptide competition of anti-pY240 immunostaining. The format is binding. The settings on record: tissue sections from human GBM with wild type PTEN. From the text:
Immunohistochemistry: Tissue sections were cut from blocks of formalin-fixed paraffin tumor tissue from glioblastoma patients treated at UCLA with the EGFR kinase inhibitors (erlotinib or gefitinib), including a subset of patients previously described^2. Tumor specimens were obtained according to a protocol approved by the institutional review board of UCLA. Pre-treatment tumor tissue was examined for 19 patients; post-treatment tissue was examined from 8 patients, including 7 patients for whom pre- and post-treatment tissue was available. […]

The subject of the next series is GBM39 cells. Briefly: PTEN Y240 phosphorylation in GBM39 glioma cells, western blot. The following applies: pervanadate 100 μM for 15 minutes. The series is classed as cell-based, human. As to the method:
Mice were sacrificed by CO2 inhalation followed by cervical dislocation, according to institutional guidelines. Subcutaneous tumors were removed and tumor tissue was minced into 0.1-0.5 mm^3 chunks in a 60 mm dish with 5 ml of freshly prepared, filter-sterilized digestion solution (12,500 units of Collagenase Type 2, 12,500 units of Collagenase Type 4, 20 mL DMEM (Serum Free), 20 uL of 1 mg/mL DNAase I). Tissue was placed into a sterile 15 ml specimen cup with an additional 10 ml of digestion solution and shaken (150 rpm) at 37 C for 3 hours before filtration through a 70/40 um filter. After centrifugation at 1000 rpm for 3 minutes, the supernatant was discarded. The pellet was resuspended in 1 ml of ACK buffer (150 mM NH4Cl, 10 mM KHCO3, 0.1 mM Na2EDTA, adjusted to pH 7.2-7.4 with 1N HCl) and incubated at room temperature for 3 minutes to lyse red blood cells. Cells were pelleted by centrifugation at 1000 rpm for 3 minutes and resuspended in culture medium (DMEM containing 10% fetal bovine serum plus L-glutamine and penicillin/streptomycin). Cell viability was determined by trypan blue exclusion and cells were plated at a density of approx 10^6 cells per 100 mm culture dish. Cells were maintained under standard cell culture conditions (37 C, 5% CO2 in a humidified incubator) and all experiments were conducted in cells prior to p4. […]
On the technique in general: In western blotting, separated proteins are transferred to a membrane and probed.

Lyn, sequence (P07948 whole entry, species assumed): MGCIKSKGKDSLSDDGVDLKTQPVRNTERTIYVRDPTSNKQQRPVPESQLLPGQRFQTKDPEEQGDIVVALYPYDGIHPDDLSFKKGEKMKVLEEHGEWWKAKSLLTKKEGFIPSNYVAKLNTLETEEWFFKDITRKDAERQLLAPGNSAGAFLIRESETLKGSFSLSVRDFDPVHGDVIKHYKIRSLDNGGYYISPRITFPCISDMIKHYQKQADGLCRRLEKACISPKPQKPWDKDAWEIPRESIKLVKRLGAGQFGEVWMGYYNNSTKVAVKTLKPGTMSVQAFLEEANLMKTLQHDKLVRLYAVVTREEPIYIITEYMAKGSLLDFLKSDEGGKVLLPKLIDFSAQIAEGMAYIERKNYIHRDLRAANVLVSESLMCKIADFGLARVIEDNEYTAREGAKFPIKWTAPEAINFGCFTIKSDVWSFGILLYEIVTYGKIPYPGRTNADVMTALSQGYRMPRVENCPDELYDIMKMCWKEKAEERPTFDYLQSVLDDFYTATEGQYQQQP

Consider `C#Cc1cccc(Nc2ncnc3cc(OCCOC)c(OCCOC)cc23)c1` [Erlotinib], for which the “sensitivity to Erlotinib (cell viability)” value in the series on Ink4a/Arf-/- astrocytes (EGFRvIII PTEN-null astrocytes reconstituted with PTEN Y240F mutant) is given as “significantly sensitized these cells to sub-micromolar doses”; in the series with Ink4a/Arf-/- astrocytes (EGFRvIII astrocytes reconstituted with WT PTEN) it was “resistant to clinically achievable doses”; with Ink4a/Arf-/- astrocytes (PTEN-null astrocytes expressing EGFRvIII), “resistant to clinically achievable doses”; in the series with Ink4a/Arf-/- astrocytes (astrocytes expressing WT PTEN, with versus without EGFRvIII) it was “sensitizes astrocytes expressing WT PTEN to Erlotinib”.

In the case of `Cc1ccc(NC(=O)c2ccc(CN3CC[C@H](N(C)C)C3)c(C(F)(F)F)c2)cc1Nc1nccc(-c2cncnc2)n1` [INNO-406], the “growth of Ph+ leukemia cells in murine CNS” value in series [1] is reported as “does inhibit growth”. On Lyn, the “Lyn inhibition versus phosphorylation of Src, Blk or Yes” value was “inhibits Lyn without affecting the phosphorylation of Src-family kinases Src, Blk or Yes”. Further, in series [2], the “concentrations in the CNS relative to those in plasma” value is “about 10%”.

As to “FMY[243.03]FEFPQPLPVC[160.03]GDIK: Phosphorylated PTEN Y240 peptide that competes away antibody staining (FM[pY]FEFPQPLPVCGDIK; not fully specified (residue 13); printed as FMY[243.03]FEFPQPLPVC[160.03]GDIK; also: modified cysteine C13 (C[160.03]))”, the “competition of antibody staining in immunostaining” value with anti-pY240 PTEN antibody was “competes away antibody staining”.

In the case of pervanadate, the “induction of Y240 phosphorylation” value in the series on GBM39 cells is “substantial increase in Y240 phosphorylation”.
